# Results: US20020111274A1, “1-alkyl-3-[1-(substituted phenyl) benzotriazol-6-yl] uracils” (BASF Aktiengesellschaft, priority 2000, published 2002)
# What was measured:
# Parameters in all cases: scale not given here
# ECHOG Barnyardgrass [1] = experiment: Preemergence herbicidal evaluation, ECHOG; type: in vivo, Echinochloa crus-galli, (L.) Beau; conditions: preemergence
# Procedure, shortened: (§1)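 Compound applied preemergence as an aqueous acetone spray onto freshly planted cups, dose equivalent approx. 0.013 to 0.800 kg/ha. Evaluation by rating at weeks 4–5.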
# CASOB Sicklepod [2] = experiment: Postemergence herbicidal evaluation, CASOB; type: in vivo, Cassia obtusifolia, L.; conditions: postemergence spray, rated about two-three weeks after treatment
# Procedure, shortened: (§2)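 Visual injury rating ~2–3 wk post-spray; replicate tests averaged. Two-week-old seedlings; foliar spray at 40 psi; 0.006–0.400 kg ai/ha in 80/20 acetone/water + 1.0% methylated seed oil.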
# ZEAMX Corn, Field [3] = experiment: Preemergence herbicidal evaluation, ZEAMX; type: in vivo, Zea mays, L. (Sammel-Bezeichnung); conditions: preemergence
# Procedure, shortened: as §1
# ABUTH Velvetleaf [4] = experiment: Postemergence herbicidal evaluation, ABUTH; type: in vivo, Abutilon theophrasti, Medic.; conditions: postemergence spray, rated about two-three weeks after treatment
# Procedure, shortened: as §2
# SETVI Foxtail, Green [5] = experiment: Preemergence herbicidal evaluation, SETVI; type: in vivo, Setaria viridis, (L.) Beau; conditions: preemergence
# Procedure, shortened: as §1
# [6] = test system: IPOHE Morningglory, Ivyleaf; experiment: Preemergence herbicidal evaluation, IPOHE; type: in vivo, Ipomoea hederacea, (L.) Jacq.; conditions: preemergence
# Procedure, shortened: as §1
# GALAP Galium [7] = experiment: Postemergence herbicidal evaluation, GALAP; type: in vivo, Galium aparine; conditions: postemergence spray, rated about two-three weeks after treatment
# Procedure, shortened: as §2
# AMBEL Ragweed, Common [8] = experiment: Preemergence herbicidal evaluation, AMBEL; type: in vivo, Ambrosia artemisifolia, L.; conditions: preemergence
# Procedure, shortened: as §1
# ECHOG Barnyardgrass [9] = experiment: Postemergence herbicidal evaluation, ECHOG; type: in vivo, Echinochloa crus-galli, (L.) Beau; conditions: postemergence spray, rated about two-three weeks after treatment
# Procedure, shortened: as §2
# [10] = test system: TRZAWR Wheat, Winter, cv Riband; experiment: Preemergence herbicidal evaluation, TRZAWR; type: in vivo, Triticum aestivum; conditions: preemergence
# Procedure, shortened: as §1
# GLXMAW Soybean, Williams [11] = experiment: Postemergence herbicidal evaluation, GLXMAW; type: in vivo, Glycine max, (L.) Merr. cv Williams; conditions: postemergence spray, rated about two-three weeks after treatment
# Procedure, shortened: as §2
# [12] = test system: CHEAL Lambsquarters, Common; experiment: Preemergence herbicidal evaluation, CHEAL; type: in vivo, Chenopodium album, L.; conditions: preemergence
# Procedure, shortened: as §1
# GLXMAW Soybean, Williams [13] = experiment: Preemergence herbicidal evaluation, GLXMAW; type: in vivo, Glycine max, (L.) Merr. cv Williams; conditions: preemergence
# Procedure, shortened: as §1
# GALAP Galium [14] = experiment: Preemergence herbicidal evaluation, GALAP; type: in vivo, Galium aparine; conditions: preemergence
# Procedure, shortened: as §1
# [15] = test system: IPOHE Morningglory, Ivyleaf; experiment: Postemergence herbicidal evaluation, IPOHE; type: in vivo, Ipomoea hederacea, (L.) Jacq.; conditions: postemergence spray, rated about two-three weeks after treatment
# Procedure, shortened: as §2
# ORYSAT Rice, Tebonnet [16] = experiment: Preemergence herbicidal evaluation, ORYSAT; type: in vivo, Oryza sativa, (L.); conditions: preemergence
# Procedure, shortened: as §1
# ZEAMX Corn, Field [17] = experiment: Postemergence herbicidal evaluation, ZEAMX; type: in vivo, Zea mays, L. (Sammel-Bezeichnung); conditions: postemergence spray, rated about two-three weeks after treatment
# Procedure, shortened: as §2
# ABUTH Velvetleaf [18] = experiment: Preemergence herbicidal evaluation, ABUTH; type: in vivo, Abutilon theophrasti, Medic.; conditions: preemergence
# Procedure, shortened: as §1
# [19] = test system: CHEAL Lambsquarters, Common; experiment: Postemergence herbicidal evaluation, CHEAL; type: in vivo, Chenopodium album, L.; conditions: postemergence spray, rated about two-three weeks after treatment
# Procedure, shortened: as §2
# AMBEL Ragweed, Common [20] = experiment: Postemergence herbicidal evaluation, AMBEL; type: in vivo, Ambrosia artemisifolia, L.; conditions: postemergence spray, rated about two-three weeks after treatment
# Procedure, shortened: as §2
# CASOB Sicklepod [21] = experiment: Preemergence herbicidal evaluation, CASOB; type: in vivo, Cassia obtusifolia, L.; conditions: preemergence
# Procedure, shortened: as §1
# ORYSAT Rice, Tebonnet [22] = experiment: Postemergence herbicidal evaluation, ORYSAT; type: in vivo, Oryza sativa, (L.); conditions: postemergence spray, rated about two-three weeks after treatment
# Procedure, shortened: as §2
# SETVI Foxtail, Green [23] = experiment: Postemergence herbicidal evaluation, SETVI; type: in vivo, Setaria viridis, (L.) Beau; conditions: postemergence spray, rated about two-three weeks after treatment
# Procedure, shortened: as §2
# [24] = test system: TRZAWR Wheat, Winter, cv Riband; experiment: Postemergence herbicidal evaluation, TRZAWR; type: in vivo, Triticum aestivum; conditions: postemergence spray, rated about two-three weeks after treatment
# Procedure, shortened: as §2
smiles,measurement,setting,value
COC(=O)COc1ccc(-n2nnc3cc(F)c(-n4c(=O)cc(C(F)(F)F)n(C)c4=O)cc32)c(C)c1 [Example 39],ECHCG herbicidal rating,ECHOG Barnyardgrass [1]; rate 0.016 kg/ha,0.0
same,ECHCG herbicidal rating,ECHOG Barnyardgrass [1]; rate 0.032 kg/ha,0.0
same,ECHCG herbicidal rating,ECHOG Barnyardgrass [1]; rate 0.062 kg/ha,0.0
same,ECHCG herbicidal rating,ECHOG Barnyardgrass [1]; rate 0.125 kg/ha,0.0
same,Postemergence herbicidal rating CASOB,CASOB Sicklepod [2]; 0.008 kg/ha,0.0
same,Postemergence herbicidal rating CASOB,CASOB Sicklepod [2]; 0.016 kg/ha,0.0
same,Postemergence herbicidal rating CASOB,CASOB Sicklepod [2]; 0.032 kg/ha,0.0
same,Postemergence herbicidal rating CASOB,CASOB Sicklepod [2]; 0.062 kg/ha,2.0
same,ZEAMX herbicidal rating,"ZEAMX Corn, Field [3]; rate 0.016 kg/ha",0.0
same,ZEAMX herbicidal rating,"ZEAMX Corn, Field [3]; rate 0.032 kg/ha",0.0
same,ZEAMX herbicidal rating,"ZEAMX Corn, Field [3]; rate 0.062 kg/ha",0.0
same,ZEAMX herbicidal rating,"ZEAMX Corn, Field [3]; rate 0.125 kg/ha",0.0
same,Postemergence herbicidal rating ABUTH,ABUTH Velvetleaf [4]; 0.008 kg/ha,9.0
same,Postemergence herbicidal rating ABUTH,ABUTH Velvetleaf [4]; 0.016 kg/ha,9.0
same,Postemergence herbicidal rating ABUTH,ABUTH Velvetleaf [4]; 0.032 kg/ha,9.0
same,Postemergence herbicidal rating ABUTH,ABUTH Velvetleaf [4]; 0.062 kg/ha,9.0
same,SETVI herbicidal rating,"SETVI Foxtail, Green [5]; rate 0.016 kg/ha",0.0
same,SETVI herbicidal rating,"SETVI Foxtail, Green [5]; rate 0.032 kg/ha",0.0
same,SETVI herbicidal rating,"SETVI Foxtail, Green [5]; rate 0.062 kg/ha",0.0
same,SETVI herbicidal rating,"SETVI Foxtail, Green [5]; rate 0.125 kg/ha",4.0
same,IPOHE herbicidal rating,[6]; rate 0.016 kg/ha,0.0
same,IPOHE herbicidal rating,[6]; rate 0.032 kg/ha,0.0
same,IPOHE herbicidal rating,[6]; rate 0.062 kg/ha,0.0
same,IPOHE herbicidal rating,[6]; rate 0.125 kg/ha,3.0
same,Postemergence herbicidal rating GALAP,GALAP Galium [7]; 0.008 kg/ha,0.0
same,Postemergence herbicidal rating GALAP,GALAP Galium [7]; 0.016 kg/ha,0.0
same,Postemergence herbicidal rating GALAP,GALAP Galium [7]; 0.032 kg/ha,3.0
same,Postemergence herbicidal rating GALAP,GALAP Galium [7]; 0.062 kg/ha,3.0
same,AMBEL herbicidal rating,"AMBEL Ragweed, Common [8]; rate 0.016 kg/ha",0.0
same,AMBEL herbicidal rating,"AMBEL Ragweed, Common [8]; rate 0.032 kg/ha",0.0
same,AMBEL herbicidal rating,"AMBEL Ragweed, Common [8]; rate 0.062 kg/ha",0.0
same,AMBEL herbicidal rating,"AMBEL Ragweed, Common [8]; rate 0.125 kg/ha",0.0
same,Postemergence herbicidal rating ECHCG,ECHOG Barnyardgrass [9]; 0.008 kg/ha,0.0
same,Postemergence herbicidal rating ECHCG,ECHOG Barnyardgrass [9]; 0.016 kg/ha,0.0
same,Postemergence herbicidal rating ECHCG,ECHOG Barnyardgrass [9]; 0.032 kg/ha,0.0
same,Postemergence herbicidal rating ECHCG,ECHOG Barnyardgrass [9]; 0.062 kg/ha,3.0
same,TRZAWR herbicidal rating,[10]; rate 0.016 kg/ha,0.0
same,TRZAWR herbicidal rating,[10]; rate 0.032 kg/ha,0.0
same,TRZAWR herbicidal rating,[10]; rate 0.062 kg/ha,0.0
same,TRZAWR herbicidal rating,[10]; rate 0.125 kg/ha,0.0
same,Postemergence herbicidal rating GLXMAW,"GLXMAW Soybean, Williams [11]; 0.008 kg/ha",3.5
same,Postemergence herbicidal rating GLXMAW,"GLXMAW Soybean, Williams [11]; 0.016 kg/ha",3.5
same,Postemergence herbicidal rating GLXMAW,"GLXMAW Soybean, Williams [11]; 0.032 kg/ha",4.0
same,Postemergence herbicidal rating GLXMAW,"GLXMAW Soybean, Williams [11]; 0.062 kg/ha",5.0
same,CHEAL herbicidal rating,[12]; rate 0.016 kg/ha,3.0
same,CHEAL herbicidal rating,[12]; rate 0.032 kg/ha,3.0
same,CHEAL herbicidal rating,[12]; rate 0.062 kg/ha,9.0
same,CHEAL herbicidal rating,[12]; rate 0.125 kg/ha,9.0
same,GLXMAW herbicidal rating,"GLXMAW Soybean, Williams [13]; rate 0.016 kg/ha",0.0
same,GLXMAW herbicidal rating,"GLXMAW Soybean, Williams [13]; rate 0.032 kg/ha",0.0
same,GLXMAW herbicidal rating,"GLXMAW Soybean, Williams [13]; rate 0.062 kg/ha",0.0
same,GLXMAW herbicidal rating,"GLXMAW Soybean, Williams [13]; rate 0.125 kg/ha",0.0
same,GALAP herbicidal rating,GALAP Galium [14]; rate 0.016 kg/ha,0.0
same,GALAP herbicidal rating,GALAP Galium [14]; rate 0.032 kg/ha,0.0
same,GALAP herbicidal rating,GALAP Galium [14]; rate 0.062 kg/ha,0.0
same,GALAP herbicidal rating,GALAP Galium [14]; rate 0.125 kg/ha,7.0
same,Postemergence herbicidal rating IPOHE,[15]; 0.008 kg/ha,9.0
same,Postemergence herbicidal rating IPOHE,[15]; 0.016 kg/ha,8.0
same,Postemergence herbicidal rating IPOHE,[15]; 0.032 kg/ha,9.0
same,Postemergence herbicidal rating IPOHE,[15]; 0.062 kg/ha,9.0
same,ORYSAT herbicidal rating,"ORYSAT Rice, Tebonnet [16]; rate 0.016 kg/ha",0.0
same,ORYSAT herbicidal rating,"ORYSAT Rice, Tebonnet [16]; rate 0.032 kg/ha",0.0
same,ORYSAT herbicidal rating,"ORYSAT Rice, Tebonnet [16]; rate 0.062 kg/ha",0.0
same,ORYSAT herbicidal rating,"ORYSAT Rice, Tebonnet [16]; rate 0.125 kg/ha",3.0
same,Postemergence herbicidal rating ZEAMX,"ZEAMX Corn, Field [17]; 0.008 kg/ha",7.0
same,Postemergence herbicidal rating ZEAMX,"ZEAMX Corn, Field [17]; 0.016 kg/ha",7.5
same,Postemergence herbicidal rating ZEAMX,"ZEAMX Corn, Field [17]; 0.032 kg/ha",7.5
same,Postemergence herbicidal rating ZEAMX,"ZEAMX Corn, Field [17]; 0.062 kg/ha",7.5
same,ABUTH herbicidal rating,ABUTH Velvetleaf [18]; rate 0.016 kg/ha,0.0
same,ABUTH herbicidal rating,ABUTH Velvetleaf [18]; rate 0.032 kg/ha,5.0
same,ABUTH herbicidal rating,ABUTH Velvetleaf [18]; rate 0.062 kg/ha,9.0
same,ABUTH herbicidal rating,ABUTH Velvetleaf [18]; rate 0.125 kg/ha,9.0
same,Postemergence herbicidal rating CHEAL,[19]; 0.008 kg/ha,0.0
same,Postemergence herbicidal rating CHEAL,[19]; 0.016 kg/ha,2.0
same,Postemergence herbicidal rating CHEAL,[19]; 0.032 kg/ha,2.0
same,Postemergence herbicidal rating CHEAL,[19]; 0.062 kg/ha,7.0
same,Postemergence herbicidal rating AMBEL,"AMBEL Ragweed, Common [20]; 0.008 kg/ha",0.0
same,Postemergence herbicidal rating AMBEL,"AMBEL Ragweed, Common [20]; 0.016 kg/ha",0.0
same,Postemergence herbicidal rating AMBEL,"AMBEL Ragweed, Common [20]; 0.032 kg/ha",6.0
same,Postemergence herbicidal rating AMBEL,"AMBEL Ragweed, Common [20]; 0.062 kg/ha",7.0
same,CASOB herbicidal rating,CASOB Sicklepod [21]; rate 0.016 kg/ha,0.0
same,CASOB herbicidal rating,CASOB Sicklepod [21]; rate 0.032 kg/ha,0.0
same,CASOB herbicidal rating,CASOB Sicklepod [21]; rate 0.062 kg/ha,0.0
same,CASOB herbicidal rating,CASOB Sicklepod [21]; rate 0.125 kg/ha,0.0
same,Postemergence herbicidal rating ORYSAT,"ORYSAT Rice, Tebonnet [22]; 0.008 kg/ha",0.0
same,Postemergence herbicidal rating ORYSAT,"ORYSAT Rice, Tebonnet [22]; 0.016 kg/ha",0.5
same,Postemergence herbicidal rating ORYSAT,"ORYSAT Rice, Tebonnet [22]; 0.032 kg/ha",1.0
same,Postemergence herbicidal rating ORYSAT,"ORYSAT Rice, Tebonnet [22]; 0.062 kg/ha",4.0
same,Postemergence herbicidal rating SETVI,"SETVI Foxtail, Green [23]; 0.008 kg/ha",0.0
same,Postemergence herbicidal rating SETVI,"SETVI Foxtail, Green [23]; 0.016 kg/ha",0.0
same,Postemergence herbicidal rating SETVI,"SETVI Foxtail, Green [23]; 0.032 kg/ha",0.0
same,Postemergence herbicidal rating SETVI,"SETVI Foxtail, Green [23]; 0.062 kg/ha",2.0
same,Postemergence herbicidal rating TRZAWR,[24]; 0.008 kg/ha,2.5
same,Postemergence herbicidal rating TRZAWR,[24]; 0.016 kg/ha,3.0
same,Postemergence herbicidal rating TRZAWR,[24]; 0.032 kg/ha,3.5
same,Postemergence herbicidal rating TRZAWR,[24]; 0.062 kg/ha,5.5
